Experimental findings from US10273221B2, “Microbiocidal heterobicyclic derivatives” (Syngenta Participations AG, priority 2015, dated 2019) are described below.

Some results are limits rather than exact numbers.

Experiment [1] has as its system Sclerotinia sclerotiorum. Description: Sclerotinia sclerotiorum / liquid culture (cottony rot). The conditions noted are these: 72 h, read-out: control of Sclerotinia sclerotiorum.
Protocol: Sclerotinia sclerotiorum/Liquid Culture (Cottony Rot)
Mycelia fragments of a newly grown liquid culture of the fungus are directly mixed into nutrient broth (Vogels broth). After placing a (DMSO) solution of test compound into a microtiter plate (96-well format) the nutrient broth containing the fungal material is added. The test plates are incubated at 24° C. and the inhibition of growth is determined photometrically 3-4 days after application.
Experiment [2] has as its system Magnaporthe grisea (Pyricularia oryzae). Description: microbe, parasite or virus in culture. The format is cell-based. The note with it: 72 h, read-out: control of Magnaporthe grisea.
Experiment [3] concerns Monographella nivalis (Microdochium nivale). Description: Monographella nivalis (Microdochium nivale) / liquid culture (foot rot cereals). The format is cell-based. The note with it: 96 h, growth inhibition determined photometrically 4-5 days after application, vs untreated control, read-out: disease control.
Experiment [4] concerns Botryotinia fuckeliana (Botrytis cinerea). Briefly: Botryotinia fuckeliana (Botrytis cinerea) / liquid culture (gray mould). The format is cell-based. The note with it: growth inhibition determined photometrically 3-4 days after application, vs untreated control, read-out: disease control.
The test system of experiment [5] is Glomerella lagenarium (Colletotrichum lagenarium). Description: Glomerella lagenarium (Colletotrichum lagenarium) / liquid culture (anthracnose). Format: cell-based. The note with it: Colletotrichum orbiculare, growth inhibition measured photometrically 3-4 days after application, vs untreated control, read-out: disease control.
The subject of experiment [6] is Pyrenophora teres. Briefly: Pyrenophora teres / liquid culture (net blotch). The note with it: growth inhibition determined photometrically 3-4 days after application, vs untreated control. The format is cell-based.
The test system of experiment [7] is Gaeumannomyces graminis. Description: Gaeumannomyces graminis / liquid culture (take-all of cereals). Format: cell-based. The note with it: growth inhibition determined photometrically 4-5 days after application, vs untreated control, read-out: disease control.
Experiment [8] relates to Fusarium culmorum. Briefly: microbe, parasite or virus in culture. Format: cell-based. The note with it: 72 h, read-out: disease control.
In experiment [9] the test system is Pyrenophora teres. Briefly: Pyrenophora teres / barley / leaf disc preventative (net blotch). Format: in vivo. The note with it: 200 ppm, barley leaf segments cv. Hasso, inoculated 2 days after application, assessed 5-7 days after application. The method, then:
Pyrenophora teres/Barley/Leaf Disc Preventative (Net Blotch)
Barley leaf segments cv. Hasso are placed on agar in a multiwell plate (24-well format) and sprayed with the formulated test compound diluted in water. The leaf segmens are inoculated with a spore suspension of the fungus 2 days after application. The inoculated leaf segments are incubated at 20° C. and 65% rh under a light regime of 12 h light/12 h darkness in a climate cabinet and the activity of a compound is assessed as disease control compared to untreated when an appropriate level of disease damage appears in untreated check leaf segments (5-7 days after application).

For `Cc1cccc2c1ncn2C1=NC(C)(C)C(C)(C)c2ccccc21` [E-16], the inhibition of growth at 20 ppm in experiment [1], in experiment [2] and in [6] was at least 80% each time. For the same compound, the inhibition of growth at 200 ppm in experiment [3], in experiment [4], in [5], in [7] and in experiment [8] was at least 80% in each case. Besides, in experiment [9], the “control of Pyrenophora teres” value is reported as “at least 80%”.
